Data reported in PubChem BioAssay (NCI).
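All cell lines were grown in 96-well plates and treated with compound for 48 hours. Here, GI50 denotes the concentration required for 50% inhibition of growth. At the TGI there is no net growth.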

What was measured:
Assay in all cases: inhibition of tumour cell growth, NCI panel, 48 h
[1] = test system: HS 578T breast
[2] = test system: OVCAR-4 ovarian
[3] = test system: OVCAR-8 ovarian
[4] = test system: 786-0 renal
[5] = test system: NCI-H460 lung
[6] = test system: MDA-MB-231 breast
[7] = test system: HT29 colon
[8] = test system: OVCAR-3 ovarian
[9] = test system: UACC-257 melanoma
[10] = test system: HCT-15 colon
[11] = test system: SK-OV-3 ovarian
[12] = test system: IGROV1 ovarian
[13] = test system: TK-10 renal
[14] = test system: LOX IMVI melanoma
[15] = test system: SK-MEL-2 melanoma
[16] = test system: CAKI-1 renal
[17] = test system: NCI-H522 lung
[18] = test system: NCI-H226 lung
[19] = test system: MDA-MB-468 breast
[20] = test system: HCC-2998 colon
[21] = test system: PC-3 prostate
[22] = test system: HOP-92 NSCLC
[23] = test system: COLO 205 colon
[24] = test system: NCI-H23 lung
[25] = test system: NCI/ADR-RES ovarian
[26] = test system: A498 renal
[27] = test system: HCT-116 colon
[28] = test system: T-47D breast
[29] = test system: MOLT-4 leukemia

COc1ccccc1/C=C/C(=O)c1ccc(OC)c(S(N)(=O)=O)c1
TGI [1]: 20 µM | GI50 [2]: 3.65 µM | TGI [2]: 16.4 µM | GI50 [3]: 2.36 µM | TGI [3]: 7.16 µM | GI50 [4]: 3.25 µM | TGI [4]: 12.9 µM | GI50 [5]: 2.09 µM | TGI [5]: 5.51 µM | GI50 [6]: 2.72 µM | TGI [6]: 7.47 µM | GI50 [7]: 3.06 µM | TGI [7]: 10.2 µM | GI50 [8]: 2.23 µM | TGI [8]: 5.05 µM | GI50 [9]: 5.96 µM | TGI [9]: 19.6 µM | GI50 [10]: 1.99 µM | TGI [10]: 10.5 µM | GI50 [11]: 7.25 µM | TGI [11]: 20.4 µM | GI50 [12]: 3.08 µM | TGI [12]: 11.5 µM | GI50 [13]: 3.54 µM | TGI [13]: 13 µM | GI50 [14]: 1.98 µM | TGI [14]: 5.27 µM | GI50 [15]: 10.4 µM | TGI [15]: 22.3 µM | GI50 [16]: 3.18 µM | TGI [16]: 13 µM | GI50 [17]: 2.12 µM | TGI [17]: 6.58 µM | GI50 [18]: 3.96 µM | TGI [18]: 15.5 µM | GI50 [19]: 2.04 µM | TGI [19]: 5.91 µM | GI50 [20]: 2.65 µM | TGI [20]: 12 µM | GI50 [21]: 4.81 µM | TGI [21]: 18.5 µM | GI50 [22]: 2.08 µM | TGI [22]: 8.78 µM | GI50 [23]: 3.54 µM | TGI [23]: 13.4 µM | GI50 [24]: 2.29 µM | TGI [24]: 9.56 µM | GI50 [25]: 2.29 µM | TGI [25]: 6.68 µM | GI50 [26]: 10.6 µM | TGI [26]: 22.6 µM | GI50 [27]: 2.49 µM | TGI [27]: 9.38 µM | GI50 [28]: 3.25 µM | TGI [28]: 12.3 µM | GI50 [29]: 2.4 µM | TGI [29]: 8.35 µM
